Results: paper PMC3404744 (Molecular Pharmaceutics, 2011)

Tests used:
[1] = tested on: 12 recombinant human UGT isoforms; test: Phenotyping using 12 recombinant UGTs; format: in vitro ADME; settings: by CLint
UGT1A1 [2] = molecular target: T1, UGT1A1 (Homo sapiens, UniProt P22309); test: Glucuronidation kinetics with recombinant human UGT1A1; format: in vitro ADME; settings: for Glucuronide isomers formed by UGT1A1: recombinant UGT1A1
T1 sequence (P22309 26-533): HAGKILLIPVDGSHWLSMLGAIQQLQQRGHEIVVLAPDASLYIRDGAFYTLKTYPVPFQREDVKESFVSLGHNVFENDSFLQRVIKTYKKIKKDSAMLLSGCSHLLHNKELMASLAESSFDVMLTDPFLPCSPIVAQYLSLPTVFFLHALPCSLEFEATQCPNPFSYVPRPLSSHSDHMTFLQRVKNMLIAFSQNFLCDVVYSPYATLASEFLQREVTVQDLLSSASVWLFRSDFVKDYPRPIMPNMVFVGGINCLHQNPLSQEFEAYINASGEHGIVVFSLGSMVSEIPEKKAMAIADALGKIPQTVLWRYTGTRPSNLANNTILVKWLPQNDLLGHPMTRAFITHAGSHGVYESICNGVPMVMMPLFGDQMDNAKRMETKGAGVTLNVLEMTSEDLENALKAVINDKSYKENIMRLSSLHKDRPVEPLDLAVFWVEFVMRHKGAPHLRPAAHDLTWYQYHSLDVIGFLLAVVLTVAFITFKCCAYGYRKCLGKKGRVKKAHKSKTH

[3] = tested on: pooled human liver microsomes (pHLM); test: Glucuronidation kinetic profile in pooled human liver microsomes; format: in vitro ADME; settings: flavonoids 4′-O-glucuronidation, SN-38 glucuronidation
UGT1A1 [4] = molecular target: T1, UGT1A1; format: in vitro ADME
[5] = after a standard therapy; cited from earlier work
UGT1A9 = molecular target: T2, UGT1A9 (Homo sapiens, UniProt O60656); test: Glucuronidation kinetics with recombinant human UGT1A9; format: in vitro ADME; settings: 10 μM
T2 sequence (O60656 26-530): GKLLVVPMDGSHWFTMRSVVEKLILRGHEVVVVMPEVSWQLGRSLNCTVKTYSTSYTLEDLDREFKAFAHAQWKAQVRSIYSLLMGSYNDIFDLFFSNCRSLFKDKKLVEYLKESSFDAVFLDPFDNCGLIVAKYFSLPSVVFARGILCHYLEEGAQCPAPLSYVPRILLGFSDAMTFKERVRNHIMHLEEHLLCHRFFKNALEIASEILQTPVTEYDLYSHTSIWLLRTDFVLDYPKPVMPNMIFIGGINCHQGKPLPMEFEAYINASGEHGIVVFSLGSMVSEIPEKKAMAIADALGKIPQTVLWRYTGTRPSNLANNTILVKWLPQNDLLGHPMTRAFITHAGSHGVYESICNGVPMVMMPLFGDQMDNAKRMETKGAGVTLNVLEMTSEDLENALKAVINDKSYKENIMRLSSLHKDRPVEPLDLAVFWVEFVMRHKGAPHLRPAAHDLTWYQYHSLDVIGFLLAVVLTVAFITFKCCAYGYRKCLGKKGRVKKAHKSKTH

Row | Main isoforms glucuronidating the flavonoid [1] | Km for recombinant UGT1A1 (4′-O-glucuronidation) compared with pooled HLM (UGT1A1 [2]) | Glucuronide isomers formed by UGT1A1 (UGT1A1 [2]) | Pattern of kinetic profile [3] | Glucuronidation in pHLM correlated with UGT1A1 activities (RAF approach) (UGT1A1 [4]) [%] | UGT1A9 activity, folds less than that of UGT1A1 (UGT1A9) [folds] | SMILES | In vivo concentration [5] [µM]
1 | UGT1A1, 1A7 and 1A9 | essentially identical | 3-O-, 6-O-, and 4′-O-glucuronide | substrate inhibition |  |  | O=c1c(O)c(-c2ccc(O)cc2)oc2ccc(O)cc12 [364′THF, 3,6,4′-trihydroxyflavone] | 
2 | UGT1A1, 1A7 and 1A9 | essentially identical | 3′-O- and 4′-O-glucuronide | substrate inhibition |  |  | O=c1c(O)c(-c2ccc(O)c(O)c2)oc2ccccc12 [33′4′THF, 3,3′,4′-trihydroxyflavone] | 
3 |  |  |  | substrate inhibition | 103 ± 8 | ~5 | CCc1c2c(nc3ccc(O)cc13)-c1cc3c(c(=O)n1C2)COC(=O)[C@]3(O)CC [SN-38, 7-ethyl-10-hydroxycamptothecin] | < 0.1
